Among the data in ChEMBL document CHEMBL5030514, “Discovery of Anti-TNBC Agents Targeting PTP1B: Total Synthesis, Structure-Activity Relationship, In Vitro and In Vivo Investigations of Jamunones” (J Med Chem, 2021) are selectivity ratio and Activity values, retold here.

Series [1] is described as follows: Selective index, ratio of IC50 for human 293T cells to IC50 of MCF-7 cells. In kind it is toxicity. The note with it: 293T cells versus MCF-7 cells, read-out: Selectivity Index.
Series [2] relates to MCF7. Kind of series: Induction of mitochondrial apoptosis in human MCF-7 cells assessed as formation of apoptotic bodies by Hoechst 33258 staining based fluorescence microscopic assay. In kind it is functional, cell-based.
In series [3] the test system is MDA-MB-231. The experiment in a line: Induction of apoptosis in human MDA-MB-231 cells assessed as decrease in Bcl-2 level at 0.56 to 5 uM measured after 24 hrs by Western blot analysis. In kind it is functional, cell-based. The note with it: dose 0.56-5 µM.
In series [4] the test system is MDA-MB-231. The experiment in a line: Cell cycle arrest in human MDA-MB-231 cells assessed as downregulation of cyclin D3 expression by Western blot analysis. In kind it is functional, cell-based.
Series [5] has as its system MDA-MB-231. The experiment in a line: Cell cycle arrest in human MDA-MB-231 cells assessed as downregulation of CDK6 expression by Western blot analysis. In kind it is functional, cell-based. For orientation: Immunoblotting shows a protein as a band on a membrane.
In series [6] the test system is MCF7. Kind of series: Cell cycle arrest in human MCF-7 cells assessed as downregulation of CDK2 expression by Western blot analysis. The series is classed as functional, cell-based.
Series [7] relates to MDA-MB-231. Kind of series: Inhibition of PTP1B expression in human MDA-MB-231 cells by Western blot analysis. The series is classed as functional, cell-based.
Series [8] concerns MCF7. Kind of series: Inhibition of PTP1B expression in human MCF7 cells by Western blot analysis. The series is classed as functional, cell-based.
In series [9] the test system is MDA-MB-231. Kind of series: Antitumour activity against human MDA-MB-231 cells xenografted in BALB/c nude mouse assessed as downregulation of Bcl-2 level at 15 to 30 mg/kg, ip administered once for every other day for 20 days by Western blot analysis. The series is classed as functional, organism-based. To be noted: dose 15-30 mg/kg, time 20.0 day. On the technique in general: Xenograft models place foreign cells or tissue in a host animal.

Molecules are shown by their SMILES. Active and inactive are the calls of the source. The rule behind the calls is not given here.

Consider `CCCC/C=C/CCCCCCCCCC1(O)CC(=O)c2c(O)c(C)c(O)c(C)c2O1` (centres undefined), for which the selectivity ratio in series [1] was determined as 2.08. For the same molecule, the outcome in [2], in [7], in [8] and in [9] was Active. The Activity entry in [3], in series [4], in series [5] and in series [6] was “Dose-Dependent Effect” throughout.
